Assay results reported in patent publication US9057727B2, “Screening methods using G-protein coupled receptors and related compositions” (The General Hospital Corporation, priority 2007, dated 2015).
Square brackets hold non-standard residues; d marks the D form. Ends that are not written are not given here. Peptide text beside a SMILES is read from it. hArg = N=C(N)NCCCC[C@H](N)C(=O)O; Aib = CC(C)(N)C(=O)O

Columns and labels:
human PTH1 receptor = biological target: T1, human PTH1 receptor (Homo sapiens, UniProt Q03431); experiment: cAMP signaling dose-response in HKRK-B7 cells; type: cell-based; conditions: 15 min, 37° C., IBMX
T1 construct: expressed in transfected cells
T1 sequence (Q03431 27-593): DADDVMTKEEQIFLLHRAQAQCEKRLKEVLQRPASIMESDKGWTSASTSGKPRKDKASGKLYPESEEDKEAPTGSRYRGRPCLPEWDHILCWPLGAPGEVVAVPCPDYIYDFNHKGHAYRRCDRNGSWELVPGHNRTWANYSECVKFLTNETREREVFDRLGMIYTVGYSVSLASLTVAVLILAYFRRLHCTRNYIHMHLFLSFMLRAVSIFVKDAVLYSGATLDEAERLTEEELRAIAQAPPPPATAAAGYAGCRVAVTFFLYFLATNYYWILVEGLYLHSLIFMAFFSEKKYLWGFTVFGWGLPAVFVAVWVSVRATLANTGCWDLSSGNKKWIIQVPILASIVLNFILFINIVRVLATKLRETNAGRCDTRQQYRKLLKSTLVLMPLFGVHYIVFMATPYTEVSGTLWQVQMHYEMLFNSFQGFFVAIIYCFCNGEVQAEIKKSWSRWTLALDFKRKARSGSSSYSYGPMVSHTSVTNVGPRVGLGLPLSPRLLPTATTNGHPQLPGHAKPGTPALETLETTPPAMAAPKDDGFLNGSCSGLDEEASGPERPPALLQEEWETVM
Experimental: In the cAMP experiments of FIG. 14, HKRK-B7 were seeded in 96 well plates at 1×10^5 cells/well and incubated overnight. On the following day, the cells were washed once with […] of binding buffer (50 mM Tris-HCl, pH 7.7, 100 mM NaCl, 5 mM KCl, 2 mM CaCl2, 5% heat-inactivated horse serum, 0.5% heat-inactivated fetal bovine serum), followed by addition of 100 μl cAMP assay buffer (DMEM, 2 mM IBMX, 1 mg/ml bovine serum albumin, 35 mM Hepes-NaOH, pH 7.4) on ice. […] After removing the medium, the plates were placed on powdered dry ice to freeze the cells and then removed from dry ice. The cells were thawed with 50 μl of 50 mM HCl and frozen again on dry ice. The level of intracellular cAMP was measured with a commercially available cAMP EIA kit (Biotrack cAMP EIA system, GE Healthcare).
HKRK-B, which are LLC-PK1 cells over-expressing human PTH1 receptor at levels of 9.5×10^5 per cell were used in the cAMP signaling assay. The cells were cultured at 37° C. in a humidified atmosphere containing 5% CO2 in Dulbecco's modified Eagle's medium (DMEM), supplemented with 10% fetal bovine serum (Hyclone), 100 units/ml penicillin G, and 100 μg/ml streptomycin sulfate (Invitrogen Corp). […] All peptides were dissolved at 1 mM in 10 mM acetic acid, and stored at −80° C. The cAMP stimulation assay was performed as described above for HKRK-B7 cells. […] Cells were treated for 15 minutes at 37° C. with varying concentrations of ligands in the presence of IBMX.

[1] = Calcemic action in normal rats (blood ionized calcium); type: in vivo; conditions: normal and TPTX rats
Experimental: Binding to the rat PTHR was also measured in vitro.
Concentration of peptides in stock solution were adjusted by dilution with 25 mmol/L phosphate-citrate buffer/100 mmol/L NaCl/0.05% Tween 80 (pH. 5.0) (PC-buffer). All peptides were allowed to stand on ice immediately before administration.
Female SD-IGS rat at 8 weeks of age (Charles River Japan, Inc.) were measured for their body weight. Blood was collected by tail vein into heparinized capillary tubes and measured for baseline levels of blood ionized calcium and pH using Ca^++/pH analyzer (Model 634/Bayer Medical Ltd.) to give the corrected level of ionized calcium at pH 7.4 for each sample. Rats received intravenous administration of each peptides at a dose of 1 ml/kg. Peptides were administered to groups of 6 rats each respectively. At 1, 2, 4, or 6 hours after administration, blood was collected by tail vein to monitor the time course of corrected blood ionized calcium levels. The time course of changes in corrected ionized calcium levels, compared to vehicle, and are expressed as means+/−standard error.

human PTH receptor = biological target: T2, human PTH receptor (Homo sapiens, UniProt Q03431); experiment: cAMP in HRKRK-B7 cells EC50 (nM)
T2 construct: expressed in transfected cells
Description: Table printed on a drawing sheet, Figure 25
Head of the field: cAMP in HRKRK-B7 cells EC50 (nM)
First copying reader's note: The column head prints the cell line as HRKRK-B7 while the title prints HKRK-B7.

[2] = biological target: hPTH1R (RG form of the human PTH receptor); experiment: RG memb: hPTH1R+dnGS *M-PTH(1-15)
[3] = tested on: PTHR-CFPIC3/YFPCT (PTHR-cam); experiment: FRET analysis of ligand binding/receptor activation in HEK-293 cells; type: cell-based, human

| EC50 (human PTH receptor) [nM] | Compound | calcemic action compared with control peptides, in words [1] | reduction (magnitude) of FRET signal [3] [%] | also measured |
| --- | --- | --- | --- | --- |
|  | CC[C@H](C)[C@H](NC(=O)[C@H](CCC(=O)O)NC(=O)[C@H](C)NC(=O)[C@@H](NC(=O)[C@H](C)N)C(C)C)C(=O)N[C@@H](CCC(N)=O)C(=O)N[C@@H](CC(C)C)C(=O)N[C@@H](CCSC)C(=O)N[C@@H](Cc1c[nH]cn1)C(=O)N[C@@H](CCC(N)=O)C(=O)N[C@@H](CCCNC(=N)N)C(=O)N[C@@H](C)C(=O)N[C@@H](CCCCN)C(=O)N[C@@H](Cc1c[nH]c2ccccc12)C(=O)N[C@@H](CC(C)C)C(=O)N[C@@H](CC(N)=O)C(=O)N[C@@H](CO)C(=O)N[C@@H](CCSC)C(=O)N[C@@H](CCCNC(=N)N)C(=O)N[C@@H](CCCNC(=N)N)C(=O)N[C@H](C(=O)N[C@@H](CCC(=O)O)C(=O)N[C@@H](Cc1c[nH]c2ccccc12)C(=O)N[C@@H](CC(C)C)C(=O)N[C@@H](CCCNC(=N)N)C(=O)N[C@@H](CCCCN)C(=O)N[C@@H](CCCCN)C(=O)N[C@@H](CC(C)C)C(=O)N[C@@H](CCC(N)=O)C(=O)N[C@@H](CC(=O)O)C(=O)N[C@H](C(=O)N[C@@H](Cc1c[nH]cn1)C(=O)N[C@@H](CC(N)=O)C(=O)N[C@@H](Cc1ccccc1)C(=O)O)C(C)C)C(C)C [Mc-PTH34(R19), Mc-hPTH(1-34)OH] (H-AVAEIQLMHQRAKWLNSMRRVEWLRKKLQDVHNF-OH; N-terminus assumed) |  |  | cAMP in HKRK-B7 cells Max (human PTH1 receptor): 65.5 pm/well |
| 1.35 | CC[C@H](C)[C@H](NC(=O)[C@H](CCC(=O)O)NC(=O)[C@H](C)NC(=O)[C@@H](NC(=O)[C@H](Cc1c[nH]cn1)NC(=O)[C@@H](NC(=O)[C@H](CCC(=O)O)NC(=O)[C@H](C)NC(=O)[C@@H](NC(=O)[C@H](CC(C)C)NC(=O)[C@H](Cc1c[nH]cn1)NC(=O)[C@H](Cc1c[nH]cn1)NC(=O)[C@H](CC(C)C)NC(=O)[C@H](Cc1ccccc1)NC(=O)[C@H](Cc1ccccc1)NC(=O)[C@H](CCCNC(=N)N)NC(=O)[C@H](CCCNC(=N)N)NC(=O)[C@H](CCCNC(=N)N)NC(=O)[C@H](CC(C)C)NC(=O)[C@H](CC(=O)O)NC(=O)[C@H](CCC(N)=O)NC(=O)[C@@H](NC(=O)[C@H](Cc1c[nH]cn1)NC(=O)[C@H](CCCCN)NC(=O)CNC(=O)[C@H](CC(C)C)NC(=O)[C@H](CC(N)=O)NC(=O)[C@H](Cc1c[nH]cn1)NC(=O)[C@H](CCSC)NC(=O)[C@H](CC(C)C)NC(=O)[C@H](CCC(N)=O)NC(=O)[C@@H](NC(=O)[C@H](CCC(=O)O)NC(=O)[C@H](CO)NC(=O)[C@@H](NC(=O)[C@@H](N)CO)C(C)C)[C@@H](C)CC)[C@@H](C)CC)[C@@H](C)CC)[C@@H](C)CC)[C@@H](C)O)C(=O)O [PTH(1-14)/PTHrP(15-36), hPTH(1-14)/PTHrP(15-36)] (H-SVSEIQLMHNLGKHIQDLRRRFFLHHLIAEIHTAEI-OH) | higher calcemic actions than did PTH(1-34) |  |  |
| 1.34 | CC[C@H](C)[C@H](NC(=O)[C@H](CCC(=O)O)NC(=O)[C@H](C)NC(=O)[C@@H](NC(=O)[C@H](Cc1c[nH]cn1)NC(=O)[C@@H](NC(=O)[C@H](CCC(=O)O)NC(=O)[C@H](C)NC(=O)[C@@H](NC(=O)[C@H](CC(C)C)NC(=O)[C@H](Cc1c[nH]cn1)NC(=O)[C@H](Cc1c[nH]cn1)NC(=O)[C@H](CC(C)C)NC(=O)[C@H](Cc1ccccc1)NC(=O)[C@H](Cc1ccccc1)NC(=O)[C@H](CCCNC(=N)N)NC(=O)[C@H](CCCNC(=N)N)NC(=O)[C@H](CCCNC(=N)N)NC(=O)[C@H](CCSC)NC(=O)[C@H](CO)NC(=O)[C@H](CC(N)=O)NC(=O)[C@H](CC(C)C)NC(=O)[C@H](Cc1c[nH]cn1)NC(=O)[C@H](CCCCN)NC(=O)CNC(=O)[C@H](CC(C)C)NC(=O)[C@H](CC(N)=O)NC(=O)[C@H](Cc1c[nH]cn1)NC(=O)[C@H](CCSC)NC(=O)[C@H](CC(C)C)NC(=O)[C@H](CCC(N)=O)NC(=O)[C@@H](NC(=O)[C@H](CCC(=O)O)NC(=O)[C@H](CO)NC(=O)[C@@H](NC(=O)[C@@H](N)CO)C(C)C)[C@@H](C)CC)[C@@H](C)CC)[C@@H](C)CC)[C@@H](C)O)C(=O)O [PTH(1-18)/PTHrP(19-36), hPTH(1-18)/PTHrP(19-36)] (H-SVSEIQLMHNLGKHLNSMRRRFFLHHLIAEIHTAEI-OH) | higher calcemic actions than did PTH(1-34) |  |  |
| 0.78 | CC[C@H](C)[C@H](NC(=O)[C@H](CCC(=O)O)NC(=O)[C@H](C)NC(=O)[C@@H](NC(=O)[C@H](Cc1c[nH]cn1)NC(=O)[C@@H](NC(=O)[C@H](CC(=O)O)NC(=O)[C@H](CCC(N)=O)NC(=O)[C@H](CC(C)C)NC(=O)[C@H](CCCCN)NC(=O)[C@H](CCCCN)NC(=O)[C@H](CCCNC(=N)N)NC(=O)[C@H](CC(C)C)NC(=O)[C@H](Cc1c[nH]c2ccccc12)NC(=O)[C@H](CCC(=O)O)NC(=O)[C@@H](NC(=O)[C@H](CCCNC(=N)N)NC(=O)[C@H](CCC(=O)O)NC(=O)[C@H](CCSC)NC(=O)[C@H](CO)NC(=O)[C@H](CC(N)=O)NC(=O)[C@H](CC(C)C)NC(=O)[C@H](Cc1c[nH]cn1)NC(=O)[C@H](CCCCN)NC(=O)CNC(=O)[C@H](CC(C)C)NC(=O)[C@H](CC(N)=O)NC(=O)[C@H](Cc1c[nH]cn1)NC(=O)[C@H](CCSC)NC(=O)[C@H](CC(C)C)NC(=O)[C@H](CCC(N)=O)NC(=O)[C@@H](NC(=O)[C@H](CCC(=O)O)NC(=O)[C@H](CO)NC(=O)[C@@H](NC(=O)[C@@H](N)CO)C(C)C)[C@@H](C)CC)C(C)C)[C@@H](C)CC)[C@@H](C)O)C(=O)O [PTH(1-30)/PTHrP(31-36)] |  |  | IC50 [2]: 0.17 nM |
|  | CC[C@H](C)[C@H](NC(=O)[C@H](CCC(=O)O)NC(=O)[C@H](CO)NC(=O)[C@@H](NC(=O)[C@@H](N)CO)C(C)C)C(=O)N[C@@H](CCC(N)=O)C(=O)N[C@@H](CC(C)C)C(=O)N[C@@H](CCSC)C(=O)N[C@@H](Cc1c[nH]cn1)C(=O)N[C@@H](CC(N)=O)C(=O)N[C@@H](CC(C)C)C(=O)NCC(=O)N[C@@H](CCCCN)C(=O)N[C@@H](Cc1c[nH]cn1)C(=O)N[C@@H](CC(C)C)C(=O)N[C@@H](CC(N)=O)C(=O)N[C@@H](CO)C(=O)N[C@@H](CCSC)C(=O)N[C@@H](CCC(=O)O)C(=O)N[C@@H](CCCNC(=N)N)C(=O)N[C@H](C(=O)N[C@@H](CCC(=O)O)C(=O)N[C@@H](Cc1c[nH]c2ccccc12)C(=O)N[C@@H](CC(C)C)C(=O)N[C@@H](CCCNC(=N)N)C(=O)N[C@@H](CCCCN)C(=O)N[C@@H](CCCCN)C(=O)N[C@@H](CC(C)C)C(=O)N[C@@H](CCC(N)=O)C(=O)N[C@@H](CC(=O)O)C(=O)N[C@H](C(=O)N[C@@H](Cc1c[nH]cn1)C(=O)N[C@@H](CC(N)=O)C(=O)N[C@@H](Cc1ccccc1)C(=O)O)C(C)C)C(C)C [hPTH(1-34), Human parathyroid hormone (1-34)] |  | ~13 | FRET signal after exchange to ligand-free buffer, in words [3]: remained suppressed |
|  | [Aib^1,3,Gln^10,Har^11,Ala^12,Trp^14]rPTH(1-14)NH2 ([Aib]V[Aib]EIQLMHQ[hArg]AKW-NH2; N-terminus assumed; SMILES CC[C@H](C)[C@H](NC(=O)[C@H](CCC(=O)O)NC(=O)C(C)(C)NC(=O)[C@@H](NC(=O)C(C)(C)N)C(C)C)C(=O)N[C@@H](CCC(N)=O)C(=O)N[C@@H](CC(C)C)C(=O)N[C@@H](CCSC)C(=O)N[C@@H](Cc1c[nH]cn1)C(=O)N[C@@H](CCC(N)=O)C(=O)N[C@@H](CCCCNC(=N)N)C(=O)N[C@@H](C)C(=O)N[C@@H](CCCCN)C(=O)N[C@@H](Cc1c[nH]c2ccccc12)C(N)=O) [[Aib^1,3,M]PTH(1-14)] |  | ~5 |  |
